This is an account of results in US20230027854A1, “ISOXAZOLE DERIVATIVES TARGETING TACC3 AS ANTICANCER AGENTS” (A2A Pharmaceuticals, inc., priority 2019, published 2023).

The test system of this test is JIMT-1 cells. Kind of test: JIMT-1 cell growth inhibition / cell viability (SRB assay). The format is cell-based. The settings on record: Homo sapiens; JIMT-1 cells; read-out: IC50. As for the experimental part:
The ability of the compounds of the present disclosure to treat TACC3-mediated cancers, or associated symptoms or complications thereof, was determined using the following procedures. The compounds of the present disclosure were tested for their activity against cell death induction using a JIMT-1 cell line, which was a cell line having high level of TACC3. The concentration of each compound that was required for half-maximal inhibition of cell proliferation was calculated by a GraphPad Prism (GraphPad Software).

Take `COc1cccc(-c2cc(Nc3ccnc(N4CCOCC4)n3)on2)c1` [Compound 6, 3-(3-methoxyphenyl)-N-(2-morpholinopyrimidin-4-yl)isoxazol-5-amine]: the IC50 turned out to be 3440 nM.
With `COc1ccccc1-c1cc(Nc2ccnc(N3CCOCC3)n2)on1` [Compound 7, 3-(2-methoxyphenyl)-N-(2-morpholinopyrimidin-4-yl)isoxazol-5-amine], the IC50 came to 8270 nM.
As for `c1ccc(-c2cc(Nc3ccnc(N4CCOCC4)n3)on2)cc1` [Compound 8, N-(2-morpholinopyrimidin-4-yl)-3-phenylisoxazol-5-amine], the figure is above 10000 nM; as for `CCOc1ccc(-c2cc(Nc3ccnc(N4CCOCC4)n3)on2)cc1` [Compound 9, 3-(4-ethoxyphenyl)-N-(2-morpholinopyrimidin-4-yl)isoxazol-5-amine], 810 nM.
As for `CCCOc1ccc(-c2cc(Nc3ccnc(N4CCOCC4)n3)on2)cc1` [Compound 10, N-(2-morpholinopyrimidin-4-yl)-3-(4-propoxyphenyl)isoxazol-5-amine], the IC50 is above 10000 nM.
In the case of `Fc1ccc(-c2cc(Nc3ccnc(N4CCOCC4)n3)on2)cc1` [Compound 11, 3-(4-fluorophenyl)-N-(2-morpholinopyrimidin-4-yl)isoxazol-5-amine] it was above 10000 nM; in that of `Clc1ccc(-c2cc(Nc3ccnc(N4CCOCC4)n3)on2)cc1` [Compound 12, 3-(4-chlorophenyl)-N-(2-morpholinopyrimidin-4-yl)isoxazol-5-amine], above 10000 nM; in that of `Cc1ccc(-c2cc(Nc3ccnc(N4CCOCC4)n3)on2)cc1` [Compound 13, N-(2-morpholinopyrimidin-4-yl)-3-(p-tolyl)isoxazol-5-amine], 640 nM.
As for `CCc1ccc(-c2cc(Nc3ccnc(N4CCOCC4)n3)on2)cc1` [Compound 14, 3-(4-ethylphenyl)-N-(2-morpholinopyrimidin-4-yl)isoxazol-5-amine], the figure is 259 nM; as for `CC(C)c1ccc(-c2cc(Nc3ccnc(N4CCOCC4)n3)on2)cc1` [Compound 15, 3-(4-isopropylphenyl)-N-(2-morpholinopyrimidin-4-yl)isoxazol-5-amine], 3610 nM; as for `FC(F)(F)c1ccc(-c2cc(Nc3ccnc(N4CCOCC4)n3)on2)cc1` [Compound 16, N-(2-morpholinopyrimidin-4-yl)-3-(4-(trifluoromethyl)phenyl)isoxazol-5-amine], above 10000 nM.
In the case of `CC(F)(F)c1ccc(-c2cc(Nc3ccnc(N4CCOCC4)n3)on2)cc1` [Compound 17, 3-(4-(1,1-difluoroethyl)phenyl)-N-(2-morpholinopyrimidin-4-yl)isoxazol-5-amine] it was above 10000 nM; in that of `FC(F)Oc1ccc(-c2cc(Nc3ccnc(N4CCOCC4)n3)on2)cc1` [Compound 18, 3-(4-(difluoromethoxy)phenyl)-N-(2-morpholinopyrimidin-4-yl)isoxazol-5-amine], 4230 nM.
For `FC(F)(F)Oc1ccc(-c2cc(Nc3ccnc(N4CCOCC4)n3)on2)cc1` [Compound 19, N-(2-morpholinopyrimidin-4-yl)-3-(4-(trifluoromethoxy)phenyl)isoxazol-5-amine], the IC50 is above 10000 nM.
As for `CSc1ccc(-c2cc(Nc3ccnc(N4CCOCC4)n3)on2)cc1` [Compound 20, 3-(4-(methylthio)phenyl)-N-(2-morpholinopyrimidin-4-yl)isoxazol-5-amine], the figure is 30 nM; as for `CN(C)c1ccc(-c2cc(Nc3ccnc(N4CCOCC4)n3)on2)cc1` [Compound 21, 3-(4-(dimethylamino)phenyl)-N-(2-morpholinopyrimidin-4-yl)isoxazol-5-amine], 120 nM.
Consider `COc1ccc(-c2cc(Nc3ccnc(N4CCOCC4)n3)on2)cc1F` [Compound 22, 3-(3-fluoro-4-methoxyphenyl)-N-(2-morpholinopyrimidin-4-yl)isoxazol-5-amine], for which the IC50 was found to be 13 nM.
In the case of `COc1ccc(-c2cc(Nc3ccnc(N4CCOCC4)n3)on2)cc1Cl` [Compound 23, 3-(3-chloro-4-methoxyphenyl)-N-(2-morpholinopyrimidin-4-yl)isoxazol-5-amine], the IC50 was determined as 480 nM.
As for `COc1ccc(-c2cc(Nc3ccnc(N4CCOCC4)n3)on2)cc1OC` [Compound 24, 3-(3,4-dimethoxyphenyl)-N-(2-morpholinopyrimidin-4-yl)isoxazol-5-amine], the figure is 730 nM; as for `c1cc(Nc2cc(-c3ccc4c(c3)OCO4)no2)nc(N2CCOCC2)n1` [Compound 26, 3-(benzo[d][1,3]dioxol-5-yl)-N-(2-morpholinopyrimidin-4-yl)isoxazol-5-amine], 870 nM.
Take `COc1ccc(-c2cc(Nc3ccnc(N4CCOCC4)n3)on2)cn1` [Compound 27, 3-(6-methoxypyridin-3-yl)-N-(2-morpholinopyrimidin-4-yl)isoxazol-5-amine]: the IC50 amounted to 7300 nM.
In the case of `Oc1ccc(-c2cc(Nc3ccnc(N4CCOCC4)n3)on2)cc1` [Compound 30, 4-(5-((2-morpholinopyrimidin-4-yl)amino)isoxazol-3-yl)phenol] it was above 10000 nM; in that of `c1ccc(COc2ccc(-c3cc(Nc4ccnc(N5CCOCC5)n4)on3)cc2)cc1` [Compound 32, 3-(4-(benzyloxy)phenyl)-N-(2-morpholinopyrimidin-4-yl)isoxazol-5-amine], above 10000 nM.
`COc1ccc(-c2cc(Nc3ccnc(N4C[C@@H](C)O[C@@H](C)C4)n3)on2)cc1` [Compound 33, N-(2-((2R,6S)-2,6-dimethylmorpholino)pyrimidin-4-yl)-3-(4-methoxyphenyl)isoxazol-5-amine]: the IC50 was 230 nM.
As for `COc1ccc(-c2cc(Nc3ccnc(N4C5CCC4COC5)n3)on2)cc1` [Compound 34, N-(2-(3-oxa-8-azabicyclo[3.2.1]octan-8-yl)pyrimidin-4-yl)-3-(4-methoxyphenyl)isoxazol-5-amine], the figure is 160 nM.
As for `COc1ccc(-c2cc(Nc3ccnc(N4CC5CCC(C4)O5)n3)on2)cc1` [Compound 35, N-(2-(8-oxa-3-azabicyclo[3.2.1]octan-3-yl)pyrimidin-4-yl)-3-(4-methoxyphenyl)isoxazol-5-amine], the figure is 3090 nM; as for `COc1ccc(-c2cc(Nc3ccnc(N4C[C@@H]5C[C@H]4CO5)n3)on2)cc1` [Compound 36, N-(2-((1S,4S)-2-oxa-5-azabicyclo[2.2.1]heptan-5-yl)pyrimidin-4-yl)-3-(4-methoxyphenyl)isoxazol-5-amine], 2020 nM.
For the molecule `COc1ccc(-c2cc(Nc3ccnc(N4C[C@H]5C[C@@H]4CO5)n3)on2)cc1` [Compound 37, N-(2-((1R,4R)-2-oxa-5-azabicyclo[2.2.1]heptan-5-yl)pyrimidin-4-yl)-3-(4-methoxyphenyl)isoxazol-5-amine], the IC50 was determined as 480 nM.
In the case of `COc1ccc(-c2cc(Nc3ccnc(N4CCC(F)CC4)n3)on2)cc1` [Compound 38, N-(2-(4-fluoropiperidin-1-yl)pyrimidin-4-yl)-3-(4-methoxyphenyl)isoxazol-5-amine] it was 130 nM.
In the case of `COc1ccc(-c2cc(Nc3ccnc(N4CCC(F)(F)CC4)n3)on2)cc1` [Compound 39, N-(2-(4,4-difluoropiperidin-1-yl)pyrimidin-4-yl)-3-(4-methoxyphenyl)isoxazol-5-amine] it was 370 nM.
